Bud outgrowth data for 1 compound are collected here from patent US20180235213A1, “PLANT HORMONE APPLICATION” (The State of Israel Ministry of Agriculture & Rural …, priority 2015, published 2018).

Entries after “also recorded” stand apart in the source; their conditions may differ.

The assay relates to olive cuttings. As to the kind of experiment: Plate bioassay of bud outgrowth in olive cuttings. The format is in vivo, Olea europaea L. The protocol:
For the purpose of determining whether the active SL analogs may be used as effective repressors of shoot branching by application on the stem itself, a bioassay examining SL analogs effect on shoot branching in vitro was established. Olive seedlings were grown in greenhouse under controlled temperature of 23° C. Partitioned plates containing ½ Murashige and Skoog (MS) solidified with 1.5% w/v agar were prepared. After solidification, the center plastic area (2 cm) of the plate was removed by scalpel. Olive seedlings were cut between the second and fourth node, and the cuttings were surface-sterilized by 70% ethanol and 1% sodium hypochlorite treatment, and then placed on the plates containing the agar media. The SL analog EGO10 was mixed with ½MS in agar, cubes were cut (1.5 cm area) and positioned at the base of the cutting in the plates (FIG. 4A). Olive seedlings treated with acetone at the same concentrations used in the EGO10 treatments represented the experimental controls. Plates were sealed in two sides only by saran wrap in order to prevent accumulation of gases. The plates were positioned in an upright 90° position and incubated at 22° C. under a photoperiod of 16 hours light followed by 8 hours dark. Photographs were taken every 3 days until day 12 by binocular. Each treatment included eight replicates. […] Bud outgrowth was measured (FIG. 4C) by Image J software and the length of the bud minus its length at the first day following application was calculated. Means of replicates were subjected to statistical analysis by using the IMP statistical package.
The ability of EGO10, applied to olive seedling cuttings through the bark of the stem, to reduce bud outgrowth was examined. An agar tube containing EGO10 was placed on the bark of the cutting (FIG. 6A). Additionally, for increased penetration of the hormone analog, the bark was scratched and the ability of EGO10 to reduce bud outgrowth in comparison to EGO10 application to non-scratched bark was tested.
As a next step in the development of SL application technology, different substances that can serve as media supporting the diffusion of SLs though the bark of plants were examined. As agar usually contains nutritional compounds, bacteria and fungi can easily contaminate agar cubes. Therefore, other substances were examined, as described hereinbelow. Experiments were performed similarly to those described in Example 3 above, by application of EGO10 in different media on the cutting bark, in plates. Bud outgrowth was monitored as described above.
Based on the results above, 30% HPC were mixed with two different concentrations of EGO10; 5 and 10 μM, and applied on the stem of olive seedling (FIG. 10). Bud outgrowth was monitored as described above and the results were compared to those obtained upon using agar cubes (described in Example 3), which served as a positive control.
In an attempt to improve HPC suitability to the examined system, HPC was mixed with glycerin in the ratio of 3:1. Glycerin, as a known humectant, has the capability to moist materials. In exemplary procedures, 5 μM EGO10 were added to the HPC and glycerin mixture, and then placed on the bark of olive cuttings. Bud outgrowth was monitored as described above.
A number of additional possible substances suitable as media for EGO10 application were screened, including polyvinyl acetate (PVAc), polyvinyl pyrrolidone (PVP) and hydroxy ethyl cellulose (HEC). The polymers were used at concentrations of 30% in water, however, as 30% PVP was not solid, it could not be tested. Accordingly, HEC and PVAc were examined for their ability to support EGO10 activity. Bud outgrowth was calculated as described above.

For `CC1=C[C@H](O/C=C2\Cc3c(n(C)c4ccccc34)C2=O)OC1=O` [EGO10], the bud outgrowth entry is given as “did not” (5 μM in 30% HEC on the bark); “supported EGO10 activity of bud outgrowth inhibition” (5 μM in 30% PVAc on the bark); “inhibited bud outgrowth throughout the experimental period” (5 μM in HPC mixed with glycerin (3:1) on the bark, until day 12); “did not sufficiently support EGO10 ability to act to inhibit bud outgrowth” (5 μM in PVA:HEC (2:1) on the bark); “did not sufficiently support EGO10 ability to act to inhibit bud outgrowth” (5 μM in PVA:PVP (2:1) on the bark); “marked reduction in bud outgrowth” (5 μM in agar cube at the base of the cutting, day 12, vs acetone control). In addition, the bud outgrowth entry is, setting by setting: (5 μM in agar cube on the bark, 96, 168 and 264 h, vs acetone control) “significant reduction in bud outgrowth; also recorded: reduced bud outgrowth throughout the entire experimental period”; (5 and 10 μM in 30% HPC on the stem) “reduced bud outgrowth until day 4 post application”.
